The source of these data is patent US20130281399A1, “TREATMENT OF DISEASES BY EPIGENETIC REGULATION” (RVX Therapeutics Inc., priority 2012, published 2013).

One data set addresses T1, Brd4 bromodomain 1 (Homo sapiens, UniProt O60885).
T1 construct: made in house; host or cells: E. coli BL21(DE3)
In words: Inhibition of binding of tetra-acetylated histone H4 to Brd4 bromodomain 1 (TR-FRET). The note with it: His-tagged Brd4 bromodomain 1 200 nM, tetra-acetylated histone H4 peptide 25-50 nM, 2 hours room temperature. The gist of the method:
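His-tagged Brd4 BD1 was expressed in E. coli and purified by Ni affinity and size exclusion. TR-FRET competition with tetra-acetylated H4 was run in 30 mM HEPES pH 7.4, 30 mM NaCl, 0.3 mM CHAPS, 20 mM phosphate pH 7.0, 320 mM KF and 0.08% BSA, with 0.2% DMSO.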

The test system of a further data set is c-myc. In words: Inhibition of c-myc expression in MV4-11 cells (real-time PCR of mRNA). It is filed as cell-based, Human. Details: key: Active: Compounds with an IC50 value less than 30 uM were deemed to be active. The conditions noted are these: 3 hours at 37° C. As for the experimental part: MV4-11 cells (2.5×10^4 cells) were plated in 96 well U-bottom plates with test compound or DMSO (0.1%), and incubated for 3 hours at 37° C. Cells were then harvested by centrifugation, lysed, and mRNA was isolated using the mRNA catcher plus kit (Invitrogen). Reverse transcription of the mRNA and duplex amplification of the c-myc and cyclophilin cDNAs was performed using the RNA Ultrasense kit (Invitrogen) and a ViiA7 real-time PCR machine (Applied Biosystems). IC50 values were determined from a dose response curve.

The subject of a further data set is Human AML MV-4-11 cells. In words: Inhibition of cell proliferation in human AML MV-4-11 cells (CellTiter Aqueous One). Set-up: key: Active: Compounds with an IC50 value less than 30 μM were deemed to be active. The conditions noted are these: 72 hours, 30 μM to 0.2 μM. It is filed as cell-based. As for the experimental part: MV4-11 cells: 96-well plates were seeded with 5×10^4 cells per well of exponentially growing human AML MV-4-11 (CRL-9591) cells and immediately treated with two-fold dilutions of test compounds, ranging from 30 μM to 0.2 μM. Triplicate wells were used for each concentration, as well as a media only and three DMSO control wells. The cells and compounds were incubated at 37° C., 5% CO2 for 72 hours before adding 20 μL of the CellTiter Aqueous One Solution (Promega) to each well and incubated at 37° C., 5% CO2 for an additional 3-4 hours. The absorbance was taken at 490 nm in a spectrophotometer and the percentage of proliferation relative to DMSO-treated cells was calculated after correction from the blank well. IC50 were calculated using the GraphPad Prism software.

For data set [1] the following is noted: murine model; Lamotte et al. (2012); cited from earlier work.
Another data set concerns IL-6. The conditions noted are these: cited from earlier work.
Data set [2] relates to NUT (nuclear protein in testis) midline carcinoma (NMC). The conditions noted are these: Filippakopoulos et al. (2010); cited from earlier work.
Another data set concerns multiple myeloma. The note with it: associated with cell cycle arrest and cellular senescence; Delmore et al. (2011); cited from earlier work.

On to `COc1cc(OC)c2c(=O)[nH]c(-c3ccc(N4CCN(C(C)C)CC4)cc3)nc2c1` [Example 10, 2-(4-(4-Isopropylpiperazin-1-yl)phenyl)-5,7-dimethoxyquinazolin-4(3H)-one], for which the “FRET activity (<50 uM)” value at Brd4 bromodomain 1 was “Active”. The “c-myc activity (<30 uM)” value in the data set on c-myc is “Active”. Further, the “cell proliferation activity (<30 uM)” value with Human AML MV-4-11 cells is “Inactive”.

`COc1cc(OC)c2c(=O)[nH]c(-c3ccc(OCCN4CCCC4)c(C)c3)nc2c1` [Example 73, 5,7-Dimethoxy-2-(3-methyl-4-(2-(pyrrolidin-1-yl)ethoxy)phenyl)quinazolin-4(3H)-one] returned a melting point of 230 to 231 °C. Moreover, the “FRET activity (<50 uM)” value on Brd4 bromodomain 1 is on record as “Active”. The “c-myc activity (<30 uM)” value with c-myc is “Active”.

For the compound `COc1cc(OCCN2CCCC2)cc(-c2nc3cc(OC)cc(OC)c3c(=O)[nH]2)c1` [Example 114, 5,7-Dimethoxy-2-(3-methoxy-5-(2-(pyrrolidin-1-yl)ethoxy)phenyl)quinazolin-4(3H)-one], the melting point was in the range of 159 to 160 °C. In addition, the “FRET activity (<50 uM)” value on Brd4 bromodomain 1 was “Active”. The “c-myc activity (<30 uM)” value with c-myc is recorded as “Active”. Besides, in the data set on Human AML MV-4-11 cells, the “cell proliferation activity (<30 uM)” value is listed as “Active”.

In the case of `COc1cc(OCCNC(C)=O)cc(-c2nc3cc(OC)cc(OC)c3c(=O)[nH]2)c1` [Example 115, N-(2-(3-(5,7-dimethoxy-4-oxo-3,4-dihydroquinazolin-2-yl)-5-methoxyphenoxy)ethyl)acetamide], the melting point lay within 264 to 265 °C. Also, the “FRET activity (<50 uM)” value on Brd4 bromodomain 1 is “Inactive”. Besides, the “c-myc activity (<30 uM)” value in the data set with c-myc is “Inactive”. Also, in the data set with Human AML MV-4-11 cells, the “cell proliferation activity (<30 uM)” value is “Active”.

In the case of `COc1cc2c(cc1-c1c(C)noc1C)ncc1[nH]c(=O)n([C@H](C)c3ccccn3)c12` [I-BET151], the “bacterial-induced inflammation and sepsis” value in data set [1] is “suppress bacterial-induced inflammation and sepsis”. The “IL-6 expression in vivo” value in the data set on IL-6 is listed as “decrease IL-6 expression”.

In the case of `CCNC(=O)C[C@@H]1N=C(c2ccc(Cl)cc2)c2cc(OC)ccc2-n2c(C)nnc21` [I-BET], the “IL-6 expression in vivo” value in the data set on IL-6 is recorded as “decrease IL-6 expression”.

Take `Cc1sc2c(c1C)C(c1ccc(Cl)cc1)=N[C@@H](CC(=O)OC(C)(C)C)c1nnc(C)n1-2` [JQ1]: the “antitumor activity in murine xenograft models of NMC” value in data set [2] was “potent antitumor activity”. Also, the “antiproliferation in multiple myeloma” value with multiple myeloma is recorded as “potent antiproliferator”.
